Values joined by “and” are separate entries in the source; they are usually repeats but may differ in a detail not shown here. Equal entries are not always repeated.

The text below walks through data of patent publication EP1196154B1, “INHIBITION OF RENAL UPTAKE OF RADIOMOLECULES WITH A COMBINATION OF LYSINE AND ARGININE” (MALLINCKRODT, INC., priority 1999, dated 2001).

In data set [1] the test system is kidneys. Briefly: Renal uptake of [^111In-DTPA-D-Phe^1]octreotide in rats with amino acid administration. The data set is classed as in vivo. Conditions: for inhibition at 400 mg/kg: Rattus norvegicus. As for the experimental part: Furthermore, it has been described by De Jong et al. in J. Nucl. Med 37(8): 1388-1392 (1996) that uptake in the rat kidneys of the [^111In-DTPA-D-Phe^1]octreotide can be inhibited by 50% by intravenous administration of the amino acid L-lysine alone (400 mg/kg). In a further article by Bernard et al. in J. Nucl.
L-arginine alone gave a reduction of 20-30% at an equimolar dose. In human studies 15, 21 and 40% reduction of kidney uptake of [^111In-DTPA-D-Phe^1]octreotide was reached using a dose of 25, 50 and 75 g L-lysine, respectively. […] Hyperkalemia may result in acute and life-threatening cardiotoxicity.

Data set [2] deals with kidneys. Conditions: Bernard et al.; cited from earlier work.
Data set [3] can be described thus: Osmolarity of infusion fluids. The data set is classed as physicochemical. Conditions: infusion fluid as prepared.
Data set [4] is described as follows: Serum potassium level in patients during amino acid infusion. It counts as in vivo, humans. The protocol: In an experiment of the invention 11 patients received an infusion over 4 hours of a solution containing 25 g L-lysine and 25 g L-arginine in 1000 mL (Lys/Arg; see MATERIALS, paragraph A. for exact formulation). The potassium level of these patients was measured in serum at t=0 hours and after 0.5, 1, 2, 4 and 5 hours.
As a control 6 patients received 75 g L-lysine in 1500 mL during 4 hours (see MATERIALS, paragraph C. for exact formulation).

Data set [5] concerns kidneys. As to the kind of experiment: Kidney uptake of ^111In-pentetreotide in patients with amino acid infusion (planar scintigraphy and dosimetry). The data set is classed as in vivo, humans. As to conditions: for reduction of kidney uptake of [^111In-DTPA-D-Phe^1]octreotide: human studies. As for the experimental part: A 1000 mL infusion containing 25 g L-lysine and 25 g L-arginine (Lys/Arg; see MATERIALS, paragraph A. for exact formulation) was administered intravenously to patients during 4 hours, starting 30 minutes prior to administration of the radioligand. One radioligand was [^111In-DTPA-D-Phe^1]octreotide (^111In-pentetreotide, OctreoScan®, Mallinckrodt Medical, Petten, The Netherlands) in a diagnostic amount of 220 MBq (9 patients). Each patient was also investigated on a separate occasion with 220 MBq ^111In-pentetreotide, but without any infusion. The other radioligand was [^177Lu-DOTA,Tyr^3]octreotate in a therapeutic amount of 1850 MBq (5 patients). Each patient was also investigated on a separate occasion with 1850 MBq [^177Lu-DOTA,Tyr^3]-octreotate, but without any infusion. The control experiment (5 patients) consisted of infusion of 1000 mL neutral infusion fluid without the amino acids (NaCl 0.45% plus Glucose 2.5%)over 4 hours, starting 30 min. prior to the injection of 220 MBq ^111In-pentetreotide.
24 Hours post infusion the uptake of the radioligand in the kidneys, spleen and liver was measured using planar scintigraphy and dosimetry, and for each patient the ratio between uptake in these organs during infusion with Lys/Arg and without Lys/Arg was calculated (Figures 1, 2 and 3).
At least 5 patients received one of the following amino acid preparations: • 1. AA (2030 mL cocktail of various amino acids; see MATERIALS, paragraph B, for the source and details) • 2. 25 g L-lysine in 500 mL (see MATERIALS, paragraph C, for exact formulation) • 3. 50 g lysine in 2000 mL (see MATERIALS, paragraph C, for exact formulation) • 4. 75 g lysine in 1500 mL (see MATERIALS, paragraph C, for exact formulation) • 5. 25 g L-lysine and 25 g L-arginine in 1000 mL (invention), (Lys/Arg; see MATERIALS, paragraph A. for exact formulation).
The preparations were given intravenously over 4 hours starting 30 minutes before treatment with the radioligand started. The radioligand was ^111Inpentetreotide, either in a diagnostic amount of 220 MBq, or in a therapeutic amount, 7 - 11 GBq. Each patient was his or her own control. The control consisted of treatment with the radioligand but without an amino acid preparation.
At 24 and 48 hours post infusion the ratio between tissue uptake in the left kidney in patients receiving an amino acid composition and the controls was determined by planar scintigraphy and dosimetry.

Data set [6] in a line: Vomiting and symptoms in patients during amino acid infusion. The data set is classed as in vivo, humans. The protocol: 26 patients received 1 to 5 therapeutic doses of 1-10 GBq ^90Y-DOTA,Tyr^3-octreotide, with concomitant infusion of a 2030 mL cocktail of various amino acids in 4 hours, starting 30 min. before the administration of the radiopharmaceutical (see MATERIALS, paragraph B. for exact details). In 11 of these 26 patients (42%), [being 20 of 84 treatments (24%)] one or more episodes of vomiting occurred, up to 30 episodes of severe vomiting per treatment.
In one of these 11 patients the vomiting was so severe during the 2 treatments with the above described regimen, that it was decided to use an infusion with 50 g of L-lysine instead of the infusion with the cocktail of various amino acids concomitant with their 3rd and 4th therapy with ^90Y-DOTA,Tyr^3-octreotide.
8 patients received multiple therapeutic doses of 7-11 GBq ^111In-pentetreotide. All received once a concomitant infusion of a 2030 mL cocktail of various amino acids in 4 hours, starting 30 min. before the administration of the radiopharmaceutical (see MATERIALS, paragraph B. for exact details). In 4 of these 8 patients (50%) vomiting occurred.
In these same 8 patients only 3 episodes […] of vomiting occurred during 22 treatments with 7-11 GBq ^111In-pentetreotide while they received 25 or 50 grams of L-lysine in 500 to 2000 mL (see MATERIALS, paragraph C. for exact details) over 4 hours, starting 30 min. before administration of the radiopharmaceutical, as concomitant infusions.
In an experiment of the invention 11 patients received an infusion over 4 hours of a solution containing 25 g L-lysine and 25 g L-arginine in 1000 mL (Lys/Arg; see MATERIALS, paragraph A. for exact formulation). Thirty min. after the start of the infusion they received a diagnostic dose of 220 MBq ^111Inpentetreotide. Ten patients had no symptoms during the infusion, in particular no vomiting. […] During the Lys/Arg infusion they vomited twice.
Five patients received the Lys/Arg infusion in the same manner as described above, but they received a therapeutic dose of 1850 MBq [^177Lu-DOTA,Tyr^3]octreotate, 30 min. after the start of the Lys/Arg infusion. None of these 5 patients had any symptoms at all, in particular no vomiting.
Until now the Lys/Arg infusion, 1000 mL in 4 hours concomitant with therapeutic doses of radioactive labelled peptides, has been administered to more than 30 patients, in total more than 80 occasions. Vomiting occurs in less than 5% of the occasions, and if it occurs it is most probably due to other causes.

By inhibition is commonly meant the share of the control response that was lost under treatment. Read a high inhibition as a response far below the control. For the compound `NCCCC[C@@H](N)C(=O)O` [D-lysine], the inhibition at 400 mg/kg in the data set on kidneys [1] is 50%. Also, the “reducing the rat renal uptake of [^111In-DTPA-D-Phe^1]octreotide and ^90Y-DOTA,Tyr^3-octreotide” value with kidneys [2] is on record as “capable of reducing”.

With `N=C(N)NCCC[C@H](N)C(=O)O` [L-arginine], the “reduction of renal uptake of [^111In-DTPA-D-Phe^1]octreotide in rats” value in the data set with kidneys [1] (alone, at an equimolar dose (to lysine 400 mg/kg)) is 20-30%.

With `NCCCC[C@H](N)C(=O)O` [L-lysine], the osmolarity result in data set [3] is “ca. 400 mosmol/L”. The hyperkalemia result in data set [4] (75 g L-lysine (Table 2), 25 g L-lysine plus 25 g L-arginine (Table 1)) was “severe hyperkalemia”. The “patients with a maximum potassium level above the critical value of 6.0 mmol/L” value in data set [4] (75 g in 1500 mL) is on record as 3 out of 6. Moreover, the “maximum potassium (K) level in serum” value in data set [4] (75 g in 1500 mL over 4 hours, single patients 12-17) is 5.2 mmol/L and 6.8 mmol/L and 6.7 mmol/L and 5.4 mmol/L and 5.0 mmol/L and 6.3 mmol/L. The “patients with severe hyperkalemia” value in data set [4] (humans, total dose of 75 g) is recorded as 50%. Moreover, the “[^111In-DTPA-D-Phe^1]octreotide uptake reduction in the left kidney, rank among amino acid preparations (Figure 4)” value in the data set with kidneys [5] (24 and 48 hours post infusion, 75 g L-lysine, 25 g L-lysine plus 25 g L-arginine) is given as “highest uptake reduction”. Moreover, the “reduction of kidney uptake of [^111In-DTPA-D-Phe^1]octreotide” value in the data set with kidneys [5] (dose of 25 g) was found to be 15%; with kidneys [5] (dose of 50 g), 21%; in the data set on kidneys [5] (dose of 75 g) it was 40%. This compound returned an inhibition at 400 mg/kg with kidneys [1] of 50%. The “episodes of vomiting during treatments” value in data set [6] (25 or 50 grams in 500 to 2000 mL over 4 hours, 7-11 GBq ^111In-pentetreotide, 3 episodes during 22 treatments, 8 patients) came out at 9%. Also, the tolerability / toxicity entry in data set [6] (human studies, doses of 25 and 50 g) was “well tolerated without any toxicity noted”. The “vomiting (conclusion from EXAMPLES 4, 5 and 6)” value in data set [6] (infusion over 4 hours) is “seldomly observed”. Moreover, the episodes of vomiting result in data set [6] (one patient, 50 g, 3rd therapy with ^90Y-DOTA,Tyr^3-octreotide) is recorded as “one”. Also, the vomiting result in data set [6] (one patient, 50 g, 4th therapy with ^90Y-DOTA,Tyr^3-octreotide) was “no vomiting at all”.

Turning to Lys/Arg, the “patients having a maximum potassium value of 6.0 mmol/L” value in data set [4] (human, in vivo) is “one out of eleven”. In data set [6] (human, in vivo), the “occasions on which vomiting occurs” value is recorded as “less than 5%”, the “patients who suffered from vomiting” value is given as “none”, the “tolerability on 4 later occasions in the same patient” value is given as “without any problems” and the “treatments in which vomiting occurred” value stood at 8%.
